{
  "source": "paper PMC6704710",
  "about": "“Preclinical evaluation of 3D185, a novel potent inhibitor of FGFR1/2/3 and CSF-1R, in FGFR-dependent and macrophage-dominant cancer models” (Journal of Experimental & Clinical Cancer Research : CR, 2019)",
  "test_in_all_cases": "Eurofins kinase panel",
  "assay_type_in_all_cases": "biochemical",
  "conditions_in_all_cases": "read-out: Inhibition rate (%)",
  "key": {"PIP5K1α(h)": {"target": "T1, PIP5K1α(h) (Homo sapiens, UniProt Q99755)", "T1 construct": "purchased Eurofins (KinaseProfiler)", "T1 sequence (Q99755 whole entry)": "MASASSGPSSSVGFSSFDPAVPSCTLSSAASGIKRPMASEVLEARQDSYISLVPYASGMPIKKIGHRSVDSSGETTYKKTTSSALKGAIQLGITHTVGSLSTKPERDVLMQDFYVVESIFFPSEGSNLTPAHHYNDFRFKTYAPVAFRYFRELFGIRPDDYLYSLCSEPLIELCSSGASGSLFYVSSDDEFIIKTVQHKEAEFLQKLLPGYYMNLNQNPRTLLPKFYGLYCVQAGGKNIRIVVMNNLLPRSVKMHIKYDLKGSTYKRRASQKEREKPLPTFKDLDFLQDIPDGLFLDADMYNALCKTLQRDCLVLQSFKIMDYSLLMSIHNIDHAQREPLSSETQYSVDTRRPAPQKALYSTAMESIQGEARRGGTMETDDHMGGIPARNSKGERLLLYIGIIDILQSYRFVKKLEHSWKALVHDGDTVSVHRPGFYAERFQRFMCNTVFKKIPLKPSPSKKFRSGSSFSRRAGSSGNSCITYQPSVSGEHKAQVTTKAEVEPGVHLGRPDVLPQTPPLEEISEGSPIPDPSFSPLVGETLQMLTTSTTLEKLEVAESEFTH"}, "LTK(h)": {"target": "T2, LTK(h) (Homo sapiens, UniProt P29376)", "T2 construct": "purchased Eurofins (KinaseProfiler)", "T2 sequence (P29376 17-864)": "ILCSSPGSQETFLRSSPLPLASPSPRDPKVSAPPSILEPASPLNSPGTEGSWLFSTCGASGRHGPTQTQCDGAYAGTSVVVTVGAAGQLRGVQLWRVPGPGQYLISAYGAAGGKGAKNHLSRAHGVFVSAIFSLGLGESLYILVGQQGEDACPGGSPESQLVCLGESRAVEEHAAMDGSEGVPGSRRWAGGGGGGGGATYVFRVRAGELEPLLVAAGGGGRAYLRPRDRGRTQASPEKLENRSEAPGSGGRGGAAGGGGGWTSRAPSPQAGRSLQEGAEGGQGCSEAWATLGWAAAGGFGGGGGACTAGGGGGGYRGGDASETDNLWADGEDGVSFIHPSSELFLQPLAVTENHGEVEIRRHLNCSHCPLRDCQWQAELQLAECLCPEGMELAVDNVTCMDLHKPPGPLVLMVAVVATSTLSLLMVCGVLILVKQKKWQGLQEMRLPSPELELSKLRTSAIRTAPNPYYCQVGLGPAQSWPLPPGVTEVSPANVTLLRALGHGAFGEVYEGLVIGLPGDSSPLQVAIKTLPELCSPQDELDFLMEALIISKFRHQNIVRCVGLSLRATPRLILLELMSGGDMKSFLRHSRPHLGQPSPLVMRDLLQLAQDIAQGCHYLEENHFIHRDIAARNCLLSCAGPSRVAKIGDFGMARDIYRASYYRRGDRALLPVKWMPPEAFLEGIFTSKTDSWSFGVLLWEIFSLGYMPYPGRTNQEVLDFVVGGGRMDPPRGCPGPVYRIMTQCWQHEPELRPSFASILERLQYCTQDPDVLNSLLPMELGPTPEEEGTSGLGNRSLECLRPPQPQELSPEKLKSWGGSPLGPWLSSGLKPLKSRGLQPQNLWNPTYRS"}, "GRK1(h)": {"target": "T3, GRK1(h) (Homo sapiens, UniProt Q15835)", "T3 construct": "purchased Eurofins (KinaseProfiler)", "T3 sequence (Q15835 1-563)": "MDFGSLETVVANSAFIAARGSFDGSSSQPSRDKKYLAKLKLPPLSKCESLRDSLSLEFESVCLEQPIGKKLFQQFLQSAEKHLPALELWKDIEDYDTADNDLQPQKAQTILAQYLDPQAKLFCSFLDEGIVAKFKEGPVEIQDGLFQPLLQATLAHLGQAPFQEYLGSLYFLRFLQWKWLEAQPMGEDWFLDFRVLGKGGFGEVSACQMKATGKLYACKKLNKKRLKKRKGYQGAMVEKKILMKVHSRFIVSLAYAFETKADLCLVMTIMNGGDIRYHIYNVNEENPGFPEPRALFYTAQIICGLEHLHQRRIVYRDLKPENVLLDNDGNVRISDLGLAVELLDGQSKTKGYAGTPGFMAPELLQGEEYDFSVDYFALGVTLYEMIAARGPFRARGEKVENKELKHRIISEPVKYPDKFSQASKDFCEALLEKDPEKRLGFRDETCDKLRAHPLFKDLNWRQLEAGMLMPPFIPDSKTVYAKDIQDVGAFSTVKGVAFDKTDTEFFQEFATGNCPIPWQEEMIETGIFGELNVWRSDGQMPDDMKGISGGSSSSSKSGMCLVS"}, "GRK6(h)": {"target": "T4, GRK6(h) (Homo sapiens, UniProt P43250)", "T4 construct": "purchased Eurofins (KinaseProfiler)", "T4 sequence (P43250 whole entry)": "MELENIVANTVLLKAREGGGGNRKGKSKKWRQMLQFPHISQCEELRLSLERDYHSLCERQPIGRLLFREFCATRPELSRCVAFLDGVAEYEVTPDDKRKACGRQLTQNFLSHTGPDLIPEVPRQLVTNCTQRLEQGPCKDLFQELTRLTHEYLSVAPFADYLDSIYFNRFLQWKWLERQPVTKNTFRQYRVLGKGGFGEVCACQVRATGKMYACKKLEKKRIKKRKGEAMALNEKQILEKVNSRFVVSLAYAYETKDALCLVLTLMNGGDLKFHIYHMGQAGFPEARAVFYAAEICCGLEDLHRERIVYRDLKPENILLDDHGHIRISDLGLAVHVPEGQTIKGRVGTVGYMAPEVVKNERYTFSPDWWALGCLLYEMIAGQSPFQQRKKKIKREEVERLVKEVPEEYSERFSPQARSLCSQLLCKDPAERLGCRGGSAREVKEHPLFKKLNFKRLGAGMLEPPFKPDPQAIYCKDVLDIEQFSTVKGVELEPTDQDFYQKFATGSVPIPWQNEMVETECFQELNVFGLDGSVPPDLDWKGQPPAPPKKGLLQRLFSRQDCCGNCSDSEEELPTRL"}, "EphA3(h)": {"target": "T5, EphA3(h) (Homo sapiens, UniProt P29320)", "T5 construct": "purchased Eurofins (KinaseProfiler)", "T5 sequence (P29320 21-983)": "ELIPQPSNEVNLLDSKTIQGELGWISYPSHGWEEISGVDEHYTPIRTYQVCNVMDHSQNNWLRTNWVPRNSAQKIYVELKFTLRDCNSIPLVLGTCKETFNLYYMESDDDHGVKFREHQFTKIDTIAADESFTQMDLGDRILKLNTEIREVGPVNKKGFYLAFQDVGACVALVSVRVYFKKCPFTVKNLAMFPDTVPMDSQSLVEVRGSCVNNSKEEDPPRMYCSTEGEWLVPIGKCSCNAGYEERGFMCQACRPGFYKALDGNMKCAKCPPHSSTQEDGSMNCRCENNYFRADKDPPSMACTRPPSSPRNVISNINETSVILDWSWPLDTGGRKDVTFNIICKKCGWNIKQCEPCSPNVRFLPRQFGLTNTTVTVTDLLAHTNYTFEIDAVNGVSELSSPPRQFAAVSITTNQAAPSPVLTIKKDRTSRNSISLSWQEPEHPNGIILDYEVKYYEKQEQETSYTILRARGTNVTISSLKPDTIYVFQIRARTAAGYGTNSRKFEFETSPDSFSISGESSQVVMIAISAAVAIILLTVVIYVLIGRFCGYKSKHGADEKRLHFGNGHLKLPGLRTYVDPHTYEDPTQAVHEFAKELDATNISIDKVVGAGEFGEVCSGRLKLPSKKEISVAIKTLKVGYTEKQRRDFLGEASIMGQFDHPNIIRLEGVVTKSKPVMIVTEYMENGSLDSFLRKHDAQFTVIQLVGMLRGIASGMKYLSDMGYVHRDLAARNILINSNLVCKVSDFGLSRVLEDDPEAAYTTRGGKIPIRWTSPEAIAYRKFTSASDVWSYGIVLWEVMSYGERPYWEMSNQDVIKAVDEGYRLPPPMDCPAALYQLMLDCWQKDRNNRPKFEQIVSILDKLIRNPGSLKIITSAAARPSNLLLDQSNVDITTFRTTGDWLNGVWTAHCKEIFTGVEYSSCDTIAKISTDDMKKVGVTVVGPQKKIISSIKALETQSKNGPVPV"}, "SAPK2b(h)": {"target": "T6, SAPK2b(h) (Homo sapiens, UniProt Q15759)", "T6 construct": "purchased Eurofins (KinaseProfiler)", "T6 sequence (Q15759 whole entry)": "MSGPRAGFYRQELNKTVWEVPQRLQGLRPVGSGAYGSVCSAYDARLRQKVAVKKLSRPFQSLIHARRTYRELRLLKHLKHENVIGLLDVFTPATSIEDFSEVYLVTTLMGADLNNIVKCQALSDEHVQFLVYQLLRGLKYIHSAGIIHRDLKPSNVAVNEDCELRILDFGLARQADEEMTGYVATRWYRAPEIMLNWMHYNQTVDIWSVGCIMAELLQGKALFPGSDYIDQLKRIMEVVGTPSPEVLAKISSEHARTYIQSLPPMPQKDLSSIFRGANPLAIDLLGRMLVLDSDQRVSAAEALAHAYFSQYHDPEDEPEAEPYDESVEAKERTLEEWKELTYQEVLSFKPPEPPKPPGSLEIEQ"}, "JNK2α2(h)": {"target": "T7, JNK2α2(h) (Homo sapiens, UniProt P45984)", "T7 construct": "purchased Eurofins (KinaseProfiler)", "T7 sequence (P45984 whole entry)": "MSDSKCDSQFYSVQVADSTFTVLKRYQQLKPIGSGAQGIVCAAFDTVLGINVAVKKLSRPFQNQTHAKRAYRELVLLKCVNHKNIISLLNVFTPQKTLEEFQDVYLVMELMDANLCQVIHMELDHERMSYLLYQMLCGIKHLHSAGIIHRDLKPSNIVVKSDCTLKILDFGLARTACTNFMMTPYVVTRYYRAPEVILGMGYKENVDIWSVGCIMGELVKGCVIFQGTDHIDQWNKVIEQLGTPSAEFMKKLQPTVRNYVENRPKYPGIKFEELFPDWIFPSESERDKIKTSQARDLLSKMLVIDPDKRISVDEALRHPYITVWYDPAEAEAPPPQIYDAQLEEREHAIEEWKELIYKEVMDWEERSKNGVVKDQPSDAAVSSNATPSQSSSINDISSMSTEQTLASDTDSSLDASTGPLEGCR"}, "CDK5/p35(h)": {"target": "T8, CDK5/p35(h) (Homo sapiens, UniProt Q00535)", "T8 construct": "purchased Eurofins (KinaseProfiler)", "T8 sequence (Q00535 whole entry)": "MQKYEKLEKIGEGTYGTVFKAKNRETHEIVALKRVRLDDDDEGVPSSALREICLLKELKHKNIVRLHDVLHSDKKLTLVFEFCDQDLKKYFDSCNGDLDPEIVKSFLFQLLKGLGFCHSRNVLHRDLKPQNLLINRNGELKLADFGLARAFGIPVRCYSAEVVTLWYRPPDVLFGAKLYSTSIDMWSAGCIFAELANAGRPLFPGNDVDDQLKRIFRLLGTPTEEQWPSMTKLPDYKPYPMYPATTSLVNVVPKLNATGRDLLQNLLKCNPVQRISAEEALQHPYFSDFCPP", "T8 sequence (Q15078 whole entry partner)": "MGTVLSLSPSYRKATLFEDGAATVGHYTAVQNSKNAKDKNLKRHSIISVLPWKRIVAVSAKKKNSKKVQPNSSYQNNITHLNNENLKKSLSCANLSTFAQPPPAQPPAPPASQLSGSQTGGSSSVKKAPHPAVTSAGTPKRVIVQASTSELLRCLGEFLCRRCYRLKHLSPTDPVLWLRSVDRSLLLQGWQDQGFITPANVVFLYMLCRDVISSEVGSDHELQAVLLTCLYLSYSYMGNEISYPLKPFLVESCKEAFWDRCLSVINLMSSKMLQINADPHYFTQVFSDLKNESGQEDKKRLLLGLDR"}, "CaMKIIβ(h)": {"target": "T9, CaMKIIβ(h) (Homo sapiens, UniProt Q13554)", "T9 construct": "purchased Eurofins (KinaseProfiler)", "T9 sequence (Q13554 whole entry)": "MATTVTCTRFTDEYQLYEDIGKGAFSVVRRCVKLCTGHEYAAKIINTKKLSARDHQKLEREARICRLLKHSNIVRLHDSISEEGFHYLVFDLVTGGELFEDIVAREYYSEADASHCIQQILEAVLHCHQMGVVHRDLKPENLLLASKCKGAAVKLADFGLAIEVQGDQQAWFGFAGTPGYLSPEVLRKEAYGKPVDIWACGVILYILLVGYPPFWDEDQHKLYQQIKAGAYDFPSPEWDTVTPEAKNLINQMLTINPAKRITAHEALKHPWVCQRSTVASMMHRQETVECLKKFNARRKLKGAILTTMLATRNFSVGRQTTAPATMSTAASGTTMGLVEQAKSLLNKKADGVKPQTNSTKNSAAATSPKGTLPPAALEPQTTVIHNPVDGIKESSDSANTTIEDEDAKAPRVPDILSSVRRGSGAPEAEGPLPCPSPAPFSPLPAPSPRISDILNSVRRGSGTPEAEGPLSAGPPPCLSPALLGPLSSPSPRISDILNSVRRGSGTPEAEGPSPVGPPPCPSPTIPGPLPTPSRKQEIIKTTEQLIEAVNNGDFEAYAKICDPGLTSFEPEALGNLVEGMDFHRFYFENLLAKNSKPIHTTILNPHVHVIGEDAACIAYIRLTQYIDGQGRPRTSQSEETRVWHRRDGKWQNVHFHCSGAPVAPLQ"}, "[1]": {"target": "T10, PI3 Kinase (p110α/p65α)(h) (Homo sapiens, UniProt P42336)", "T10 construct": "purchased Eurofins (KinaseProfiler)"}, "LIMK1(h)": {"target": "T11, LIMK1(h) (Homo sapiens, UniProt P53667)", "T11 construct": "purchased Eurofins (KinaseProfiler)", "T11 sequence (P53667 whole entry)": "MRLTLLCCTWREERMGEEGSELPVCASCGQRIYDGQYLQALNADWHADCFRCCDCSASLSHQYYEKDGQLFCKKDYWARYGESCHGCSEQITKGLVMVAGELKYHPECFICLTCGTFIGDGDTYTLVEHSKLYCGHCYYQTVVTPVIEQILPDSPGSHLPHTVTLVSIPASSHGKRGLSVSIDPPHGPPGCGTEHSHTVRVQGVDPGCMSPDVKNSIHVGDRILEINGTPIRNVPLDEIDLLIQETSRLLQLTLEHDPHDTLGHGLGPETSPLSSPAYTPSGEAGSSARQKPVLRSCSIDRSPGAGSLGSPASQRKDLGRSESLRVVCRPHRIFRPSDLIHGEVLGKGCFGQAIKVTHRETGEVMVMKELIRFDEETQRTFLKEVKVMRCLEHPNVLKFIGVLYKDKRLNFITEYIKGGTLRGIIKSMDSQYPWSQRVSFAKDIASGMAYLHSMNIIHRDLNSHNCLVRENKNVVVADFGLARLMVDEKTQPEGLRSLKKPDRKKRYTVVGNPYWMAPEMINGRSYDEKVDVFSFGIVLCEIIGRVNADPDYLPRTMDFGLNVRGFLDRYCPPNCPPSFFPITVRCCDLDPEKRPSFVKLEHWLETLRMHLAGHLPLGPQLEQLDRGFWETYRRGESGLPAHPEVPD"}},
  "data": [
    {"molecule": "COc1cc(OC)c(Cl)c(-c2ccc3c(NC(=O)c4ccc(N5CCNC(C)(C)C5)cc4)n[nH]c3n2)c1Cl", "note": "[3D185]", "values": [
      {"measurement": "inhibition at 0.01 µM", "setting": "PIP5K1α(h); 10 nM", "result": -1, "unit": "%"},
      {"measurement": "inhibition at 0.1 µM", "setting": "PIP5K1α(h); 100 nM", "result": -4, "unit": "%"},
      {"measurement": "inhibition at 1 µM", "setting": "PIP5K1α(h); 1000 nM", "result": -9, "unit": "%"},
      {"measurement": "inhibition at 0.01 µM", "setting": "LTK(h); 10 nM", "result": -8, "unit": "%"},
      {"measurement": "inhibition at 0.1 µM", "setting": "LTK(h); 100 nM", "result": 1, "unit": "%"},
      {"measurement": "inhibition at 1 µM", "setting": "LTK(h); 1000 nM", "result": 37, "unit": "%"},
      {"measurement": "inhibition at 0.01 µM", "setting": "GRK1(h); 10 nM", "result": -2, "unit": "%"},
      {"measurement": "inhibition at 0.1 µM", "setting": "GRK1(h); 100 nM", "result": -5, "unit": "%"},
      {"measurement": "inhibition at 1 µM", "setting": "GRK1(h); 1000 nM", "result": -7, "unit": "%"},
      {"measurement": "inhibition at 0.01 µM", "setting": "GRK6(h); 10 nM", "result": -4, "unit": "%"},
      {"measurement": "inhibition at 0.1 µM", "setting": "GRK6(h); 100 nM", "result": -6, "unit": "%"},
      {"measurement": "inhibition at 1 µM", "setting": "GRK6(h); 1000 nM", "result": -5, "unit": "%"},
      {"measurement": "inhibition at 0.01 µM", "setting": "EphA3(h); 10 nM", "result": 2, "unit": "%"},
      {"measurement": "inhibition at 0.1 µM", "setting": "EphA3(h); 100 nM", "result": 14, "unit": "%"},
      {"measurement": "inhibition at 1 µM", "setting": "EphA3(h); 1000 nM", "result": 30, "unit": "%"},
      {"measurement": "inhibition at 0.01 µM", "setting": "SAPK2b(h); 10 nM", "result": 3, "unit": "%"},
      {"measurement": "inhibition at 0.1 µM", "setting": "SAPK2b(h); 100 nM", "result": 14, "unit": "%"},
      {"measurement": "inhibition at 1 µM", "setting": "SAPK2b(h); 1000 nM", "result": 20, "unit": "%"},
      {"measurement": "inhibition at 0.01 µM", "setting": "JNK2α2(h); 10 nM", "result": 3, "unit": "%"},
      {"measurement": "inhibition at 0.1 µM", "setting": "JNK2α2(h); 100 nM", "result": 4, "unit": "%"},
      {"measurement": "inhibition at 1 µM", "setting": "JNK2α2(h); 1000 nM", "result": 1, "unit": "%"},
      {"measurement": "inhibition at 0.01 µM", "setting": "CDK5/p35(h); 10 nM", "result": 19, "unit": "%"},
      {"measurement": "inhibition at 0.1 µM", "setting": "CDK5/p35(h); 100 nM", "result": 17, "unit": "%"},
      {"measurement": "inhibition at 1 µM", "setting": "CDK5/p35(h); 1000 nM", "result": 12, "unit": "%"},
      {"measurement": "inhibition at 0.01 µM", "setting": "CaMKIIβ(h); 10 nM", "result": -1, "unit": "%"},
      {"measurement": "inhibition at 0.1 µM", "setting": "CaMKIIβ(h); 100 nM", "result": -3, "unit": "%"},
      {"measurement": "inhibition at 1 µM", "setting": "CaMKIIβ(h); 1000 nM", "result": -4, "unit": "%"},
      {"measurement": "inhibition at 0.01 µM", "setting": "[1]; 10 nM", "result": 3, "unit": "%"},
      {"measurement": "inhibition at 0.1 µM", "setting": "[1]; 100 nM", "result": 2, "unit": "%"},
      {"measurement": "inhibition at 1 µM", "setting": "[1]; 1000 nM", "result": 0, "unit": "%"},
      {"measurement": "inhibition at 0.01 µM", "setting": "LIMK1(h); 10 nM", "result": 2, "unit": "%"},
      {"measurement": "inhibition at 0.1 µM", "setting": "LIMK1(h); 100 nM", "result": 8, "unit": "%"},
      {"measurement": "inhibition at 1 µM", "setting": "LIMK1(h); 1000 nM", "result": 0, "unit": "%"}
    ]}
  ]
}
